The source made the active and inactive calls.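 How the source made its calls: active means GFP positive cell share at least 15% at top dose plus 60%-effect dose below 60 µM; inactive means the rest.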

These results are taken from PubChem BioAssay AID651745 (NMMLSC, 2012).

The subject of test [1] is ER-HoxA9 myeloid progenitors, lysozyme-GFP differentiation, flow cytometry. In words: differentiation induction in ER-HoxA9 progenitors – cell-based, lysozyme-GFP, flow cytometry, Cherry Pick01, dose response (AID 651745).
Test in test [2]: as above
Particulars: ER-HoxA9 myeloid progenitors, lysozyme-GFP differentiation, flow cytometry.

Regarding `CC(=O)Nc1ccc(C2=CC(=O)C[C@H](c3ccc(Cl)cc3)C2)cc1`, the EC50 in test [1] was 24.7 µM.

Regarding `COc1ccc(/C=C/C(O)=C2/C(=O)N(C)C3(C)CC2c2ccccc2O3)cc1` (stereo not drawn), the percent GFP positive (differentiation) in test [2] (at 13.2 µM (top of the series)) is 5.7% (inactive). In the case of `CCOC(=O)C1=C(CN2CCc3ccccc32)NC(=O)NC1c1cccc([N+](=O)[O-])c1` (stereo not drawn), the percent GFP positive (differentiation) in test [2] (at 19.9 µM (top of the series)) is 10.5% (inactive). As for `CCCCN1C(N)=NC[C@@H]1Cc1ccc(O)cc1`, the percent GFP positive (differentiation) in test [2] (at 39.8 µM (top of the series)) is 3.4% (inactive). Consider `COC(=O)c1cc2c(=O)c3ccccc3oc2nc1/C=C/N(C)C`, for which, in test [1], the concentration giving a half-maximal response (EC50) is 6.88 µM. For `Nc1ccc(C#Cc2ccc3c(=O)c4ccccc4oc3c2)cc1`, the percent GFP positive (differentiation) in test [2] (at 13.2 µM (top of the series)) was 15.2% (inactive). Take `COC(=O)C1=C(c2cc3ccccc3s2)C[C@@H]2CC[C@H]1N2C(=O)NC1CCCCC1`: the percent GFP positive (differentiation) in test [2] (at 13.2 µM (top of the series)) was 4.3% (inactive). Take `C/C(N)=C(/C#N)C(=O)COC(=O)c1cc(C)n(-c2ccc(F)cc2)c1C`: in test [2] (at 19.9 µM (top of the series)), the percent GFP positive (differentiation) is 10.9% (inactive). `Cc1ccc(OCc2nnc(SCc3nc4ccccc4[nH]3)n2Cc2ccco2)cc1`: the percent GFP positive (differentiation) in test [2] (at 19.9 µM (top of the series)) was 3.4% (inactive). On to `COc1ccccc1NC(=O)c1cccc(S(=O)(=O)N2CCN(c3ccccc3)CC2)c1`, for which, in test [2] (at 19.9 µM (top of the series)), the percent GFP positive (differentiation) is 4.3% (inactive). With `O=C(NCc1ccccc1)C1=C[C@@H](c2csc3ccccc23)C[C@@H](OCc2ccc(CO)cc2)O1`, the percent GFP positive (differentiation) in test [2] (at 4.37 µM (top of the series)) is 1.2% (inactive). Consider `O[C@H]1C[C@H](c2ccc(Cl)cc2)N(Cc2cccs2)C[C@@H]1n1cc(C2CC2)nn1`, for which the EC50 in test [1] was 4.9 µM. For `Cn1c(-c2ccccc2)c[n+]2c1-c1ccccc1C2`, the percent GFP positive (differentiation) in test [2] (at 19.9 µM (top of the series)) was 3.8% (inactive).

As to `O=[N+]([O-])c1ccc(C[n+]2cccc3c4ccccc4ccc32)cc1`, the percent GFP positive (differentiation) in test [2] (at 39.8 µM (top of the series)) was 3.1% (inactive). `Cc1cccn2cc(COc3ccc(-c4ccccc4)cc3)nc12`: the EC50 in test [1] was 2.24 µM. Take `O=C(O)c1ccccc1Nc1ccc([N+](=O)[O-])cc1`: the concentration for a half-maximal effect (EC50) in test [1] was 6.05 µM. As to `COc1ccc(/C=C/c2cccc[n+]2C)c(O)c1`, the percent GFP positive (differentiation) in test [2] (at 39.8 µM (top of the series)) is 6.2% (inactive).

For `COc1ccc(NC(=S)N2CCC3CC2c2c(Cl)cccc23)c(OC)c1` (stereo not drawn), the percent GFP positive (differentiation) in test [2] (at 39.8 µM (top of the series)) was 0.6% (inactive). Turning to `COc1ccc(Cn2nnnc2CN2CCc3ccccc32)cc1`, the percent GFP positive (differentiation) in test [2] (at 39.8 µM (top of the series)) is 1.9% (inactive). For `CCC(CO)n1c(SCc2cc(=O)oc3cc(C)ccc23)nc2ccccc2c1=O` (stereo not drawn), in test [2] (at 19.9 µM (top of the series)), the percent GFP positive (differentiation) is 2.7% (inactive). On to `CCCN1CCc2c(sc(NC(=O)c3ccc(S(=O)(=O)N(C)c4ccccc4)cc3)c2C(=O)NC)C1`, for which the percent GFP positive (differentiation) in test [2] (at 13.2 µM (top of the series)) was 89.5% (inactive). Turning to `COc1ccccc1C1N(c2ccc(Cl)cc2)C(=O)C2CCCN21` (stereo not drawn), in test [1], the EC50 was 6.47 µM. Take `O=C(O)c1ccccc1N/N=C/c1c(Sc2nnnn2-c2ccccc2)nc2ccccn2c1=O`: the percent GFP positive (differentiation) in test [2] (at 39.8 µM (top of the series)) is 97.5% (inactive). For the compound `CC(=O)c1c(NC(=O)c2ccccc2)[nH]c(-c2ccccc2)nc1=S`, in test [2] (at 39.8 µM (top of the series)), the percent GFP positive (differentiation) is 4% (inactive). With `Cn1c(=O)c2cc(NC(=O)NCc3ccc(F)cc3)ccc2n1C/C=C/c1ccccc1`, the percent GFP positive (differentiation) in test [2] (at 2.19 µM (top of the series)) is 1.7% (inactive).

As to `N#C/C(=C\N1CCN(Cc2ccc3c(c2)OCO3)CC1)c1nc2ccccc2s1`, the concentration giving a half-maximal response (EC50) in test [1] is 6.5 µM. In the case of `COc1ccccc1CN(Cc1nc2ccccc2c(=O)[nH]1)C(=O)Nc1ccc(C)cc1`, the percent GFP positive (differentiation) in test [2] (at 39.8 µM (top of the series)) was 1.4% (inactive).

Take `CCOC(=O)c1c(NC(=O)C(C)Sc2cccc[n+]2[O-])sc2c1CCN(Cc1ccccc1)C2` (stereo not drawn): the percent GFP positive (differentiation) in test [2] (at 13.2 µM (top of the series)) was 1.7% (inactive). For `CCCCn1c(N)c(N(CC(C)C)C(=O)Cc2ccc(S(=O)(=O)N3CCOCC3)s2)c(=O)[nH]c1=O`, the EC50 in test [1] is 20.2 µM. `Cc1nn(-c2ccccc2)c(N2CCCC2)c1/C=N/NC(=S)Nc1ccccc1F`: the percent GFP positive (differentiation) in test [2] (at 4.37 µM (top of the series)) is 2.2% (inactive). Consider `Cn1cc(-c2cnc3c(NC=O)cc(-c4cccc(C(F)(F)F)c4)cn23)cn1`, for which the percent GFP positive (differentiation) in test [2] (at 6.6 µM (top of the series)) is 2.3% (inactive). For the compound `COc1ccc2ccccc2c1CNC(=O)CC1C(=O)NCCN1CC(C)C` (stereo not drawn), the percent GFP positive (differentiation) in test [2] (at 39.8 µM (top of the series)) is 7% (inactive). Take `COc1ccc(-n2c(C)cc(/C=C3\SC(=S)N(Cc4ccco4)C3=O)c2C)cc1`: the percent GFP positive (differentiation) in test [2] (at 19.9 µM (top of the series)) is 7.7% (inactive). Same read-out and setting: then `Cc1cccn2c(=O)c(/C=C3\SC(=S)NC3=O)c(NCCCN3CCOCC3)nc12`, with 33% (inactive). In the case of `O=CNc1ccc2c3c(cccc13)-c1ccccc1-2`, in test [2] (at 13.2 µM (top of the series)), the percent GFP positive (differentiation) was 1.9% (inactive).

Take `Cc1cc(NC(=O)COC(=O)c2c(C)nn(Cc3ccccc3)c2Cl)no1`: the concentration for a half-maximal effect (EC50) in test [1] was 4.44 µM. As for `O=C(O)c1cccnc1Nc1ccc(Cl)cc1`, in test [1], the EC50 is 5.88 µM. The same measure, in the same setting: the figure for `CCC(C)Sc1ccc(-c2nc3cc(C)ccn3c2NC2CCCCC2)cc1` (stereo not drawn) is 21.3 µM. In the case of `C[n+]1ccccc1/C=C/c1ccc2ncccc2c1`, in test [2] (at 39.8 µM (top of the series)), the percent GFP positive (differentiation) was 4.4% (inactive). Take `COc1cccc(NC(=O)[C@H](Cc2c[nH]c3ccccc23)NC(=O)[C@@H]2Cc3ccccc3CN2)c1`: the percent GFP positive (differentiation) in test [2] (at 39.8 µM (top of the series)) was 3.5% (inactive). On the same count and under the same terms, then `N#CC(C#N)=c1ccc2c(c1)N1C(c3ccccc3)=CC(c3ccccc3)C3CCCCC31N=2` (stereo not drawn), with 1% (inactive). Regarding `CN(Cc1ccc(Cl)c(Cl)c1)C(=O)C1=CC=CN2CCS(=O)(=O)N=C12`, the percent GFP positive (differentiation) in test [2] (at 13.2 µM (top of the series)) is 6.5% (inactive). Take `c1cc(SC2CCCCC2)cc(-c2nc3cnccn3c2NC2CCCCC2)c1`: in test [2] (at 6.6 µM (top of the series)), the percent GFP positive (differentiation) is 4.8% (inactive). `CCS(=O)(=O)c1nc(S(=O)(=O)c2ccc(Cl)cc2)c(N2CCC3(CC2)OCCO3)s1`: the percent GFP positive (differentiation) in test [2] (at 39.8 µM (top of the series)) is 5.1% (inactive). Turning to `C=CCN(c1ccccc1OC)S(=O)(=O)c1ccc(Cl)c(C(=O)NCc2ccco2)c1`, the percent GFP positive (differentiation) in test [2] (at 13.2 µM (top of the series)) is 2.5% (inactive).

For `Cc1ccc(Nc2nc(=O)c3cccnc3s2)c(Br)c1`, in test [1], the EC50 was 4.47 µM. `C/C(=C1/SC(N2CCCC2)=NC1=O)c1ccc(Br)cc1`: the half-maximal effective concentration (EC50) in test [1] is 2.08 µM.

Turning to `CCOC(=O)c1c(NC(=O)c2nn(CC)cc2Br)c(C#N)cn1-c1ccccc1`, the percent GFP positive (differentiation) in test [2] (at 39.8 µM (top of the series)) was 0.4% (inactive).

As for `CCOC(=O)c1c(NC(=O)C(C)OC(=O)c2ccc(NC(=O)CC#N)cc2)sc2c1CCCC2` (stereo not drawn), the percent GFP positive (differentiation) in test [2] (at 6.6 µM (top of the series)) was 1.6% (inactive). As to `Cn1ccc2c(-c3ccc(C(C)(C)C)cc3)cc3c(c21)C1CCC3O1` (stereo not drawn), the EC50 in test [1] was 5.62 µM. As for `CCCCOc1ccc(OC(=O)Nc2cc(Cl)ccc2OC)cc1`, in test [2] (at 13.2 µM (top of the series)), the percent GFP positive (differentiation) is 2.55% (inactive). Same read-out and setting: the figure for `CCCc1nc2c3ccccc3ccn2c1Cc1ccc(OC)cc1C` is 2.2% (inactive). On to `CC(=O)c1c(N2CCOCC2)[nH]c(-c2ccccc2)nc1=S`, for which the percent GFP positive (differentiation) in test [2] (at 39.8 µM (top of the series)) was 5.35% (inactive). For the compound `C[n+]1c(/C=C/c2ccc3c(c2)OCO3)ccc2ccccc21`, the percent GFP positive (differentiation) in test [2] (at 13.2 µM (top of the series)) is 3.3% (inactive). Take `C#CC[N+](CC)(CC)CC#Cc1ccccc1`: the percent GFP positive (differentiation) in test [2] (at 39.8 µM (top of the series)) is 4.1% (inactive). For the compound `Cc1ccc(-c2nn3c(C)nnc3s2)cc1NC(=O)CSc1ccc(Cl)cc1`, the percent GFP positive (differentiation) in test [2] (at 39.8 µM (top of the series)) was 0.9% (inactive).

`Clc1ccc(Cn2ncc3c(N4CCN(c5ccccc5)CC4)ncnc32)cc1`: the percent GFP positive (differentiation) in test [2] (at 4.37 µM (top of the series)) was 1.8% (inactive). With `CCOc1ccccc1Nc1nc2ccc(C)cc2n2cnnc12`, in test [2] (at 39.8 µM (top of the series)), the percent GFP positive (differentiation) is 1.4% (inactive). On to `Brc1ccc(-c2csc3[n+]2CCCCC3)cc1`, for which the percent GFP positive (differentiation) in test [2] (at 6.6 µM (top of the series)) is 9.9% (inactive).

Take `O=C(CCNC(=O)c1ccc(Br)cc1)NC1CCCc2ccccc21` (stereo not drawn): the 50% effective concentration (EC50) in test [1] is 5.32 µM. As for `CCC1(c2ccc(F)cc2)NC(=O)N(CC(=O)N2CCN(S(=O)(=O)c3ccc(C)cc3C)CC2)C1=O` (stereo not drawn), the percent GFP positive (differentiation) in test [2] (at 13.2 µM (top of the series)) is 1.95% (inactive).

Consider `COc1ccc(C)cc1NC(=O)n1ncc2cc(Cl)ccc21`, for which the percent GFP positive (differentiation) in test [2] (at 39.8 µM (top of the series)) is 2.5% (inactive). For `O=C(CCCN1C(=O)/C(=C/c2ccco2)SC1=S)Nc1cccc(C(=O)O)c1`, the percent GFP positive (differentiation) in test [2] (at 19.9 µM (top of the series)) is 7.4% (inactive).

For the compound `CNC(=O)c1c(NC(=O)c2ccc(S(=O)(=O)N3CCCc4ccccc43)cc2)sc2c1CCN(C)C2`, the percent GFP positive (differentiation) in test [2] (at 13.2 µM (top of the series)) is 4.8% (inactive). On to `Cc1cccc(N2CCN(C(=O)c3ccc4c(c3)OCCO4)CC2)c1C`, for which the percent GFP positive (differentiation) in test [2] (at 39.8 µM (top of the series)) is 2.1% (inactive). In the case of `COc1ccc(NC2=C(NC(C)=O)C(=O)c3ccccc3C2=O)cc1`, in test [2] (at 6.6 µM (top of the series)), the percent GFP positive (differentiation) is 20.3% (inactive). Turning to `O=c1[nH][nH]cc1C=Nc1ccccc1O`, the percent GFP positive (differentiation) in test [2] (at 19.9 µM (top of the series)) was 2.8% (inactive). Turning to `Cc1c(N=C2NN=C(c3c[nH]c4ccccc34)CS2)c(=O)n(-c2ccccc2)n1C`, the percent GFP positive (differentiation) in test [2] (at 39.8 µM (top of the series)) is 5.55% (inactive).

One may read the EC50 as the midpoint of the concentration-response curve.
